The test system of series [1] is NuTu-19 ovarian cancer cells. Description: MTS cell viability assay, cultured NuTu-19 cells. The series is classed as cell-based, rat. To be noted: for effect on the ability of cisplatin to kill NuTu-19 cells: with cisplatin 43 μM, FIG. 2 and 3. As for the experimental part: NuTu-19 cells were plated at a density of 3,000 cells per well in 96 well culture dishes, and incubated at 37° C., in the presence of 5% carbon dioxide, for 24 hours. […] The NuTu-19 cells were then rinsed with media and incubated in the presence of cisplatin for an additional 24 hours.
The NuTu-19 cells were then rinsed twice with phosphate buffered saline (PBS), then MTS assays were performed to measure the number of living cells. MTS is an abbreviation for (3-(4,5-dimethylthiazol-2-yl)-5-(3-carboxymethoxyphenyl)-2-(4-sulfophenyl)-2H-tetrazolium. The MTS assay is a colorimetric method for determining the number of viable cells based upon physiologic catabolism of MTS to a formazan product that is soluble in tissue culture medium. The absorbance of the formazan product at 490 nm can be measured directly from a 96 well plate using a plate reader. Increased absorbance at 490 nm correlates with increased production of formazan in a well. This is typically due to more viable cells present in a well.

Series [2] has as its system rSPI-tu epithelial ovarian cancer cells. The series is described as follows: MTT cytotoxicity study with ebselen and allopurinol. The series is classed as cell-based, rat. The note with it: each drug 100 μM, no cisplatin/paclitaxel. How it is done: Each of the cell lines listed above was plated at a density of 3,500 cells per well in 96 well plates and incubated at 37° C. for 24 hours. […] After the one hour incubation, 50 μl of cisplatin and paclitaxel were added to the cell lines at the various concentrations shown in TABLE 2 to achieve an IC50 in the absence of other drugs. […]
[…], 10 μl of MTT (3-(4,5-dimethlythiazol-2-yl)-2,5-diphenyl […] bromide) working solution was added to each well (based on the instructions in the Chemicon MTT Cell Growth Kit Cat #CT01) and the cells were incubated for 4 hours. 100 μl of isopropanol/HCl solution was then added to each well and absorbance at 570 nm was measured.

For series [3], the system named is mammalian ovarian cancer cell lines. The series is described as follows: MTT cytotoxicity study, statements over all ovarian cancer cell lines tested. The series is classed as cell-based. How it is done: Each of the cell lines listed above was plated at a density of 3,500 cells per well in 96 well plates and incubated at 37° C. for 24 hours. […] After the one hour incubation, 50 μl of cisplatin and paclitaxel were added to the cell lines at the various concentrations shown in TABLE 2 to achieve an IC50 in the absence of other drugs. The cells were then incubated at 37° C. in 5% CO2 in the presence of the cisplatin and paclitaxel for an additional 67-72 hours.
After the 67-72 hour incubation period, 10 μl of MTT (3-(4,5-dimethlythiazol-2-yl)-2,5-diphenyl […] bromide) working solution was added to each well (based on the instructions in the Chemicon MTT Cell Growth Kit Cat #CT01) and the cells were incubated for 4 hours. 100 μl of isopropanol/HCl solution was then added to each well and absorbance at 570 nm was measured.

Series [4] relates to OVCAR-3 adenocarcinoma ovarian cancer cells. Description: MTT cytotoxicity study with ebselen and allopurinol. To be noted: each drug 100 μM, no cisplatin/paclitaxel. The series is classed as cell-based, human. How it is done:
(§1) Each of the cell lines listed above was plated at a density of 3,500 cells per well in 96 well plates and incubated at 37° C. for 24 hours. […] After the one hour incubation, 50 μl of cisplatin and paclitaxel were added to the cell lines at the various concentrations shown in TABLE 2 to achieve an IC50 in the absence of other drugs. The cells were then incubated at 37° C. in 5% CO2 in the presence of the cisplatin and paclitaxel for an additional 67-72 hours. Control wells were included as follows: no drug, ebselen, allopurinol, ebselen and allopurinol, and cisplatin/paclitaxel.
(§2) After the 67-72 hour incubation period, 10 μl of MTT (3-(4,5-dimethlythiazol-2-yl)-2,5-diphenyl […] bromide) working solution was added to each well (based on the instructions in the Chemicon MTT Cell Growth Kit Cat #CT01) and the cells were incubated for 4 hours. 100 μl of isopropanol/HCl solution was then added to each well and absorbance at 570 nm was measured. The results of the MTT assay for the different ovarian cancer cell lines tested are shown in FIGS. 9A-16C and are summarized below in TABLE 3.

The test system of series [5] is CAOV-3 adenocarcinoma ovarian cancer cells. The series is described as above. The series is classed as cell-based, human. To be noted: each drug 100 μM, no cisplatin/paclitaxel. How it is done:
as §1, §2

Series [6] has as its system SKOV-3 adenocarcinoma ovarian cancer cells. The description is as above. The series is classed as cell-based, human. To be noted: each drug 100 μM, no cisplatin/paclitaxel. How it is done: as §1, §2
The subject of series [7] is TOV-112D adenocarcinoma/endometroid carcinoma ovarian cancer cells. The description is as above. The series is classed as cell-based, human. The note with it: each drug 100 μM, no cisplatin/paclitaxel. As for the experimental part: as §1, §2
Series [8] has as its system OV-90 papillary serous adenocarcinoma ovarian cancer cells. Described as above. The series is classed as cell-based, human. To be noted: each drug 100 μM, no cisplatin/paclitaxel. How it is done: as §1, §2
In series [9] the test system is ES-2 clear cell carcinoma ovarian cancer cells. Described as above. To be noted: each drug 100 μM, no cisplatin/paclitaxel. The series is classed as cell-based, human. As for the experimental part: as §1, §2
A further series concerns NuTu-19 tumors. Description: NuTu-19 ovarian cancer tumor model in F-344 rats, tumor response. The series is classed as in vivo, rat. As for the experimental part:
An ovarian cancer tumor model was established in rats by injection of 10^7 NuTu-19 cells into the peritoneal cavity of 8-10 week old female F-344 rats. Rats with injected NuTu-19 cells were allowed to develop tumor burden for two weeks prior to cisplatin treatment. A control series of 10 rats was evaluated separately for the development of ovarian tumor burden under the described conditions. All rats in the control series were sacrificed 5 weeks after NuTu-19 tumor cell injection and tumor burden was evaluated.
The absence of ascites, but presence of more than 5 visible tumor nodules (each >0.5 mm) in the peritoneal cavity was considered to be an indication that the cancer partially responded to the treatment. The absence of ascites and presence of fewer than 5 visible tumor nodules (each >0.5 mm) was considered to be an indication that the cancer fully responded to the treatment.

For series [10] the following is noted: patients receiving cisplatin; Helson 1978; cited from earlier work.
The test system of a further series is non-cancer cell line. The note with it: Baldew et al. 1992; cited from earlier work.
A further series deals with inner ear hair cells. Description: Cochlea explant culture, inner ear hair cell count (calbindin/DAPI). The series is classed as cell-based, mouse. The note with it: FIG. 5. How it is done: Three cochlea per treatment, obtained from P3-4 mouse pups, were cultured in 0.4 micrometer MilliCell-CM inserts with NeuroBasal A medium plus B27 supplement. After 24 hours in culture, ebselen was added to the medium, incubated for ten minutes, and then cisplatin was added to the medium at a final concentration of 43 μM. A first control treatment included 43 μM cisplatin. A second control treatment included 47 μM ebselen without the addition of cisplatin. All cultures were incubated for 24 hours at 37° C. in 5% carbon dioxide.
The explants were then harvested, fixed, and stained with calbindin (which detects hair cells) and DAPI (4′,6-Diamindino-2-phenylindole; for detection of nuclear DNA).

For series [11], the system named is cochlear outer hair cells. The series is described as follows: Count of outer auditory hair cells in excised cochleae after cisplatin. The series is classed as in vivo, rat. To be noted: cisplatin and ebselen versus cisplatin, saline and DMSO; FIG. 8A, 8B. How it is done: (§3) Auditory Evoked Brainstem Response (ABR) was used to assess hearing in rats before and after exposure to cisplatin and chemoprotectants. Ebselen or DMSO (control vehicle) were introduced intraperitoneally into rats one hour before intraperitoneal administration of cisplatin at a dosage of 16 mg/kg body weight. Seventy-two hours after delivery of cisplatin, ABR data were collected, animals were sacrificed, cochleae were collected, dissected, stained with FITC-phalloidin (to detect F-Actin in hair cells), and DAPI (to detect nuclear DNA).
Additionally, cochleae were excised from rats treated with the combination of cisplatin and ebselen as described in this Example. Cochleae were also excised from rats treated with cisplatin and saline and DMSO (control). The number of outer auditory hair cells in the excised cochlea were counted at intervals of 0.1 mm along the cochlea. Representative results from a control rat and a treated rat are shown in FIG. 8A and FIG. 8B, respectively.

Series [12] deals with rats treated with cisplatin. The series is described as follows: Auditory Evoked Brainstem Response (ABR), permanent threshold shift after cisplatin. To be noted: 8, 16, 24, 32 kHz; ebselen 16 mg/kg i.p. plus cisplatin 16 mg/kg i.p., versus cisplatin without ebselen; 72 hours; FIG. 6. The series is classed as in vivo, rat. As for the experimental part:
as §3
Ten cochlea were tested per treatment. The PTS is a measure of hearing loss.
Four cochlea were tested per treatment.

The conditions of series [13]: treatment of acute ischemic stroke; cited from earlier work.
Series [14] deals with TOV-21G adenocarcinoma/clear cell carcinoma ovarian cancer cells. Description: MTT cytotoxicity study with ebselen and allopurinol. To be noted: each drug 100 μM, no cisplatin/paclitaxel. The series is classed as cell-based, human. As for the experimental part:
as §1, §2

[15] abbreviates: all cell lines tested, concentration range from 20 μM to 100 μM.

On to `Oc1ncnc2[nH]ncc12` [allopurinol], for which the “effect on the ability of cisplatin to kill NuTu-19 cells” value in series [1] is given as “does not inhibit the ability of cisplatin to kill NuTu-19 ovarian cancer tumor cells”. For the same compound, the “Percent live cells after 96 hour drug treatment” value (shortened to “Percent live cells”) is ~80% in series [2]; ~100% in series [4]; ~80% in [5]; ~90% in series [6]; ~100% in series [7]; ~100% in [8]. The “Percent live cells” value in [9] is listed as ~90%. The “cytotoxicity on the ovarian cancer cell lines” value in series [3] (setting [15]) is “did not have a toxic effect”.

As for `N.N.[Cl][Pt][Cl]` [cisplatin, cis-diaminedichloroplatinum], the “killing of cultured NuTu-19 ovarian cancer cells” value in [1] (incubation for 24 hours in the presence of cisplatin, FIG. 1) is listed as “killed”. For the same compound, the “Tumor Response % Complete” value in the series with NuTu-19 tumors (rats that showed no sign of tumor burden) amounted to 57%. In the series with NuTu-19 tumors (rats that showed some evidence of tumor burden), the “Tumor Response % Partial” value came to 43%. Besides, the “Tumor Response % No” value with NuTu-19 tumors (rats with tumors not responsive to cisplatin treatment) is listed as 0%. Moreover, the “patients who experience significant hearing loss” value in series [10] was “up to 90%”.

With `O=c1c2ccccc2[se]n1-c1ccccc1` [ebselen, 2-phenyl-1,2-benzoisoselenazol-3(2H)-one], the “toxicity in a non-cancer cell line” value in the series with non-cancer cell line is recorded as “non-toxic”. Moreover, in the series with inner ear hair cells (47 μM ebselen plus 43 μM cisplatin, 24 hours, in vitro), the “protection of inner ear hair cells from damage by cisplatin” value is “protects inner ear hair cells from damage by cisplatin”. Besides, the “cytotoxic effect on cochlear inner ear cells” value in the series on inner ear hair cells (ebselen 47 μM without cisplatin) was “does not appear to have a cytotoxic effect”. Besides, the “percentage of outer hair cells missing in cochleae” value in series [11] is reported as “less”. Further, in series [12], the “permanent threshold shift (PTS) in hearing” value is “PTS is less”. The “effect on the ability of cisplatin to kill NuTu-19 cells” value in series [1] is “does not inhibit the ability of cisplatin to kill NuTu-19 ovarian cancer tumor cells”. For the same compound, the “Percent live cells” value in series [2] is recorded as ~20%; in series [4] it was ~20%; in series [5], ~0%; in [14], ~18%; in series [6] it was ~40%; in series [7], ~18%. Besides, the “Percent live cells” value is listed as ~40% in series [8] and ~20% in series [9]. For the same compound, in series [3] (ES-2, SKOV-3 and OVCAR-3), the “effect on the chemotherapeutic activity of cisplatin and paclitaxel in multi-drug chemotherapy resistant cell lines” value was “enhanced the chemotherapeutic activity of cisplatin and paclitaxel”. For the same compound, in series [3] (setting [15]), the “cytotoxicity on the ovarian cancer cell lines” value was “induced dose-dependant cytotoxicity”. Also, in [3] (setting [15]), the “effect on the chemotherapeutic effect of cisplatin plus paclitaxel” value is reported as “enhances the chemotherapeutic effect of cisplatin plus paclitaxel”. In [13], the “adverse events in human clinical testing” value was “no adverse events were identified”.

The values above are taken from patent publication US20110020470A1, “METHODS AND COMPOSITIONS FOR TREATING CANCER” (SOUND PHARMACEUTICALS INCORPORATED, priority 2005, published 2011).
